Laboratory results from patent publication US5514662A, “Use of amphotericin B derivatives as protease inhibitors” (priority 1991, dated 1996).

How the values were obtained:
HRV14 = test: Cytopathogenic effect of HRV14 in HeLa-Ohio cells; assay type: cell-based
Description: HeLa-Ohio cells cultured until they have become confluent, are infected with a suspension of HRV14 virus. The cytopathogenic effect of the virus is evaluated by staining the cells with a 0.5% solution of crystal violet and 20% of methanol; after rinsing the plates with water, the optical density is read at 550 nm.
For the rest of the experiment, the cells are infected with a viral suspension with a titre such that 50% of the cells are killed after 3 days on control cells not receiving any treatment. 1 hour after the infection, the test product (AmB or DABF-AmB) is added at concentrations ranging from 0.03 to 100 μM. The percentage inhibition of the cytopathogenic effect is determined as follows:
OD (treated infected cells)-OD (infected cells)!
OD (healthy cells)-OD (infected cells)!
The effect of the addition of DABF-AmB was tested at various times: preincubation of the cells with DABF-AmB before the viral infection; addition of DABF-AmB at the time of the infection; addition of DABF-AmB after the infection, during the period of viral proliferation.

reverse transcriptase = target: T1, reverse transcriptase (Human immunodeficiency virus type 1 (BRU ISOLATE), UniProt P03367); test: Direct action on reverse transcriptase in vitro; assay type: biochemical
T1 construct: probably viral enzyme of LAV/BRU (LAI) culture supernatant

viral antigen p24 [1] = test: Secretion of p24 in HIV-1 infected PBMCs; assay type: cell-based; details: Human immunodeficiency virus 1, PBMC, read-out: inhibition of synthesis of p24
Description: (§1) The T cells (Jurkat and CEM) used are very permissive to HIV infection. They are cultured in RPMI 1640 medium supplemented with 10% foetal calf serum, 2 mM of glutamine and a mixture of penicillin and streptomycin. The peripheral blood mononuclear cells are obtained from blood from healthy donors, isolated on a Ficoll Hypaque gradient and stimulated with 10 μg/ml of phytohaemagglutinin A (PHA), for two days, in RPMI 1640 medium supplemented, prior to the infection by HIV, with amikacin and vancomycin (10 mg/ml), polybrene (1 mg/ml) and anti-interferon gamma serum (5 U/ml). After infection, the PBMCs are cultured (10^5 per well) in flat-bottomed 96-well plates in the same RPMI 1640 medium (200 μl per well).
The PBMCs cells (2×10^6 /ml) are infected with the same viruses and under the same conditions as the Jurkat or CEM cells. […]
(§2) The viral antigen p24 was quantified in the infected-cell supernatant by radioimmunological assay using the procedure recommended by the manufacturer (ABBOTT, Diagnostics Division).
PBMCs isolated from healthy individuals are infected with HIV-1. The production of antigen p24 as well as the reverse transcriptase activity can be detected in the supernatants of cultures infected 3 days after the infection. […]
(§3) The effect of DABF-AmB on the reverse transcriptase activity and on the secretion of p24 is evaluated on the 6th day.

[2] = system: HIV-1 isolates derived from patients; test: Infection of PBMCs by HIV-1 isolates derived from patients; assay type: cell-based; details: 10 μM, 10 viral strains derived from patients, RT activity after 10 days
Description: PBMCs were infected under the conditions described above in the general procedures, with various HIV-1 isolates derived from patients, or identified as resistant to AZT. The anti-viral effect of DABF-AmB was determined by measuring the RT activity in the supernatants after 10 days of culture.

viral antigen p24 [3] = test: Expression of soluble viral antigen p24 in HIV-1 infected Jurkat and CEM cells; assay type: cell-based
Description: For the infection, fresh Jurkat or CEM type cells are centrifuged and the pellet is incubated for 2 hours at 37° C. with the viral preparation (10000 cpm of reverse transcriptase activity/10^6 cells, which corresponds to a multiplicity of infection of 0.04 to 0.1). The cells are then washed and resuspended (0.5×10^6/ ml) in fresh culture medium. Reverse transcriptase activity is determined at specific times after the infection, using the acellular infected cell supernatant.
as §2
The expression of the soluble viral antigen p24 was investigated at the same time as the reverse transcriptase activity, in the cell culture supernatants.
The AmB treatment is carried out under the same conditions as the DABF-AmB treatment.
In another experiment, 10 μM of DABF-AmB are added either during pretreatment 24 hours before the infection, or alternatively during the 2-hour inoculation stage, or alternatively during continuous treatment, as described above, for 12 days following the infection.

CEM cells = test: Cell viability of CEM cells; assay type: cell-based, human; details: concentrations above 100 μM
Excerpt: Cell viability was estimated at the same time. […] It therefore appears that DABF-AmB inhibits the replication of HIV at doses which are not cytotoxic.

PBMCs = test: Cytotoxicity on PBMCs; assay type: cell-based, human; details: concentrations up to 10^-3 M
CD4 = test: Membrane expression of CD4 in HIV-1 infected Jurkat and CEM cells; assay type: cell-based, human; details: 10 μM continuous, 8th day
Description: Membrane expression of CD4 and gp120 is measured by means of the monoclonal antibodies OKT4 (0,5 μg/ml), 110-4 (2 μg/ml) respectively, which are stained using a […].
The fluorescence is measured by means of a FACSTAR cell counter (BECTON DICKINSON, MOUNTAIN VIEW, Calif.). The results are expressed as mean fluorescence intensity.
The CD4-specific monoclonal antibody (OKT4 was bought from ORTHO PHARMACEUTICAL CORPORATION (Raritan, N.J.).
Immunofluorescence analyses are carried out on the 8th day of the infection in order to verify whether the inhibition of HIV replication by DABF-AmB results in 10 a reduced membrane expression of viral antigens.

HIV-1 = test: Reverse transcriptase activity in HIV-1 infected PBMCs; assay type: cell-based
Description: as §1
The PBMCs cells (2×10^6 /ml) are infected with the same viruses and under the same conditions as the Jurkat or CEM cells. They are then washed and resuspended in fresh culture medium in flat-bottomed 96-well plates (10^5 cells per well in […]).
The reverse transcriptase activity is determined at the indicated times using the culture supernatant, according to the procedure described by REY et al., Biochem. Res. Comm. 121, 126-133 (1984).
PBMCs isolated from healthy individuals are infected with HIV-1. The production of antigen p24 as well as the reverse transcriptase activity can be detected in the supernatants of cultures infected 3 days after the infection. The maximum reverse transcriptase activity and p24 synthesis are observed between the 6th and 7th day, and the 5th and 6th day respectively. No cell death is observed at this time.
The infected PBMCs are treated continuously as described above for the Jurkat and CEM cells, using increasing concentrations of DABF-AmB.
as §3

chymotrypsin = test: Activity of DABF-AmB on various proteases: chymotrypsin; assay type: biochemical; details: 1 μM
Description: DABF-AmB was tested, at a concentration of 1 μM, on various proteases (papain, chymotrypsin, kallicrein, leucocyte elastase, cathopsin D and recombinant protease p10) under conditions and in the presence of substrates appropriate for each of the proteases tested.

C[C@@H]1[C@H](O)[C@@H](C)/C=C/C=C/C=C/C=C/C=C/C=C/C=C/[C@H](O[C@@H]2O[C@H](C)[C@@H](O)[C@H](NCC(=O)[C@@H](O)[C@@H]3OC(c4ccccc4)OC[C@H]3O)[C@@H]2O)C[C@@H]2O[C@](O)(C[C@@H](O)C[C@@H](O)[C@H](O)CC[C@@H](O)C[C@@H](O)CC(=O)O[C@H]1C)C[C@H](O)[C@H]2C(=O)O (stereo partly drawn) [DABF-AmB, 1-deoxy-1-amino-4,6-O-benzylidene-D-fructosyl-AmB]
concentration from which cytopathogenic effects are completely inhibited (HRV14; added 1 hour after infection): ≥ 10 µM | IC50 (HRV14; added 1 hour after infection, read-out: IC50 (50% inhibition of the cytopathogenic effect)): 5 µM | stage of action on HRV14 by time of addition (HRV14; addition before, at time of, or after infection): acts essentially during viral proliferation | direct action on reverse transcriptase activity (reverse transcriptase): no direct action | inhibition at 10 µM (viral antigen p24 [1]): 88 ± 6% | inhibition of infection of PBMC [2]: substantially reducing, or even completely inhibiting | inhibition of p24 secretion (viral antigen p24 [3]; 10 μM added during the 2-hour inoculation stage): does not bring about any significant inhibition | inhibition of p24 secretion (viral antigen p24 [3]; 10 μM added prior to infection (24 hours pretreatment)): does not bring about any significant inhibition | minimal effective concentration (viral antigen p24 [3]; Human immunodeficiency virus 1, 288 h, read-out: concentration for significant inhibition of p24): > 5 µM | efficacy on the multiplication of HIV compared with AmB (viral antigen p24 [3]; p24, 10 μM, 4 and 8 days): substantially greater than that of AmB | cytotoxic effect (CEM cells): no cytotoxic effect | cytotoxic effect on PBMCs (PBMCs): without cytotoxic effect | level of the membrane antigen CD4 (CD4): increases until it reaches that for the uninfected cells | inhibition at 10 µM (HIV-1; Human immunodeficiency virus 1, PBMC, 144 h, PBMCs, 10 μM, 6th day, N=3): 92 ± 4% | increase in the anti-HIV action in PBMCs (HIV-1; concentrations above 20 μM): do not bring about a significant increase | anti-HIV inhibition in PBMCs (in words) (HIV-1; concentrations below 1 μM): only a low inhibition | inhibition of chymotrypsin (chymotrypsin): does not inhibit
